{
  "source": "patent US11813250B2",
  "about": "“Topical formulations containing mTOR inhibitors” (Shanghai Aucta Pharmaceuticals Co., Ltd., priority 2020, dated 2023)",
  "key": {"[1]": {"experiment": "Solubility in topical solvents", "format": "physicochemical", "conditions": "organic solvent or mixture", "description": "This example evaluated sirolimus and everolimus solubility and stability in various FDA approved topical solvents and co-solvent systems such as diethylene glycol monoethyl ether (Transcutol® P as manufactured by Gattefosse), N-Methyl-2-pyrrolidone (NMP), dimethyl sulfoxide (DMSO), ethanol, Caprylocaproyl polyoxyl-8 glycerides (Labrasol® as manufactured by Gattefosse) and propylene carbonate combined or alone.\nThe melting point of DMSO is 19° C. (66° F.; 292 K), thus it will freeze under refrigerated condition."}, "[2]": {"experiment": "Everolimus isomer C stability study in various solvents at 50° C.", "format": "physicochemical", "description": "The formulation of this example was prepared in substantially the same manner as the composition of Example 1.\nExperiments were performed to study the stability of everolimus in Transcutol P, NMP, DMSO and propylene carbonate under 40° C. at concentration of 20 mg/ml and everolimus in Transcutol P, NMP, DMSO, ethanol, Labrasol and propylene carbonate under 50° C. at concentration of 80 mg/ml. […] DMSO, NMP and propylene carbonate stabilized sirolimus and everolimus and could be used as dissolving agents together or separately.\nEverolimus concentrations are at 80 mg/ml in the solvent and co-solvent systems. The said solution was stored at 50° C. oven and samples were evaluated at time 0, 1 h, 2 h and 4 h."}, "[3]": {"conditions": "cited from earlier work"}, "[4]": {"experiment": "Sirolimus isomer C stability in various solvents under 40° C. for 24 hr (HPLC)", "format": "physicochemical", "description": "(§1) Sirolimus concentrations are at 20 mg/ml in the solvent and co-solvent systems. The solution was stored at 40° C. oven and samples were evaluated at time 0, 1, 4 and 24 hours with HPLC analysis."}, "[5]": {"experiment": "Seco-Rapamycin in various solvents under 40° C. for 24 hr", "format": "physicochemical", "conditions": "for percentage of Seco-Rapamycin in the overall amount of sirolimus: 40° C.", "description": "as §1\nSeco-Rapamycin is a major decomposition product of sirolimus, the open ring conformation of Rapamycin (sirolimus), is also quantitated in the solvent systems. […] The initial concentrations of Seco-Rapamycin were undetectable in the tested samples. Less than 0.5% of sirolimus converted or degraded to Seco-Rapamycin in Propylene Carbonate, DMSO and NMP."}, "[6]": {"conditions": "DMSO, room temperature, read-out: solubility in DMSO"}, "[7]": {"conditions": "N-Methyl-2-pyrrolidone (NMP), both room temperature and refrigerated condition, read-out: solubility in NMP"}, "[8]": {"conditions": "Transcutol P (diethylene glycol monoethyl ether), both room temperature and refrigerated condition, read-out: solubility in Transcutol P"}, "[9]": {"conditions": "propylene carbonate, both room temperature and refrigerated condition, read-out: solubility in propylene carbonate"}},
  "note": "Like-named read-outs stand apart in the source and are kept apart here.",
  "data": [
    {"smiles": "CO[C@H]1C[C@@H]2CC[C@@H](C)[C@@](O)(O2)C(=O)C(=O)N2CCCC[C@H]2C(=O)O[C@H]([C@H](C)C[C@@H]2CC[C@@H](OCCO)[C@H](OC)C2)CC(=O)[C@H](C)/C=C(\\C)[C@@H](O)[C@@H](OC)C(=O)[C@H](C)C[C@H](C)/C=C/C=C/C=C/1C", "note": "[Everolimus]", "values": [
      {"measurement": "solubility", "setting": "[1]; [6]", "value": "> 200", "unit": "mg/mL"},
      {"measurement": "solubility", "setting": "[1]; [7]", "value": "> 100", "unit": "mg/mL"},
      {"measurement": "solubility", "setting": "[1]; [8]", "value": "> 100", "unit": "mg/mL"},
      {"measurement": "solubility", "setting": "[1]; [9]", "value": "> 100", "unit": "mg/mL"},
      {"measurement": "Isomer C level (%)", "setting": "[2]; everolimus 80 mg/ml in DMSO, 0 h", "value": 1.63, "unit": "%"},
      {"measurement": "Isomer C level (%)", "setting": "[2]; everolimus 80 mg/ml in DMSO, 1 h", "value": 1.67, "unit": "%"},
      {"measurement": "Isomer C level (%)", "setting": "[2]; everolimus 80 mg/ml in DMSO, 2 h", "value": 1.73, "unit": "%"},
      {"measurement": "Isomer C level (%)", "setting": "[2]; everolimus 80 mg/ml in DMSO, 4 h", "value": 1.86, "unit": "%"},
      {"measurement": "Isomer C level (%)", "setting": "[2]; everolimus 80 mg/ml in Ethanol, 0 h", "value": 1.85, "unit": "%"},
      {"measurement": "Isomer C level (%)", "setting": "[2]; everolimus 80 mg/ml in Ethanol, 1 h", "value": 2.66, "unit": "%"},
      {"measurement": "Isomer C level (%)", "setting": "[2]; everolimus 80 mg/ml in Ethanol, 2 h", "value": 3.81, "unit": "%"},
      {"measurement": "Isomer C level (%)", "setting": "[2]; everolimus 80 mg/ml in Ethanol, 4 h", "value": 5.40, "unit": "%"},
      {"measurement": "Isomer C level (%)", "setting": "[2]; everolimus 80 mg/ml in NMP, 0 h", "value": 1.62, "unit": "%"},
      {"measurement": "Isomer C level (%)", "setting": "[2]; everolimus 80 mg/ml in NMP, 1 h", "value": 1.76, "unit": "%"},
      {"measurement": "Isomer C level (%)", "setting": "[2]; everolimus 80 mg/ml in NMP, 2 h", "value": 1.86, "unit": "%"},
      {"measurement": "Isomer C level (%)", "setting": "[2]; everolimus 80 mg/ml in NMP, 4 h", "value": 1.99, "unit": "%"},
      {"measurement": "Isomer C level (%)", "setting": "[2]; everolimus 80 mg/ml in Propylene Carbonate, 0 h", "value": 1.63, "unit": "%"},
      {"measurement": "Isomer C level (%)", "setting": "[2]; everolimus 80 mg/ml in Propylene Carbonate, 1 h", "value": 1.84, "unit": "%"},
      {"measurement": "Isomer C level (%)", "setting": "[2]; everolimus 80 mg/ml in Propylene Carbonate, 2 h", "value": 2.06, "unit": "%"},
      {"measurement": "Isomer C level (%)", "setting": "[2]; everolimus 80 mg/ml in Propylene Carbonate, 4 h", "value": 2.47, "unit": "%"},
      {"measurement": "Isomer C level (%)", "setting": "[2]; everolimus 80 mg/ml in Transcutol P, 0 h", "value": 1.71, "unit": "%"},
      {"measurement": "Isomer C level (%)", "setting": "[2]; everolimus 80 mg/ml in Transcutol P, 1 h", "value": 3.78, "unit": "%"},
      {"measurement": "Isomer C level (%)", "setting": "[2]; everolimus 80 mg/ml in Transcutol P, 2 h", "value": 5.26, "unit": "%"},
      {"measurement": "Isomer C level (%)", "setting": "[2]; everolimus 80 mg/ml in Transcutol P, 4 h", "value": 6.43, "unit": "%"},
      {"measurement": "increase of the assay of everolimus isomer C", "setting": "[2]; from 0 h to 4 h in DMSO, propylene carbonate and NMP, 80 mg/ml", "value": "less than 1.5%"},
      {"measurement": "water solubility", "setting": "[3]", "value": "poorly water-soluble"}
    ]},
    {"smiles": "CO[C@H]1C[C@@H]2CC[C@@H](C)[C@@](O)(O2)C(=O)C(=O)N2CCCC[C@H]2C(=O)O[C@H]([C@H](C)C[C@@H]2CC[C@@H](O)[C@H](OC)C2)CC(=O)[C@H](C)/C=C(\\C)[C@@H](O)[C@@H](OC)C(=O)[C@H](C)C[C@H](C)/C=C/C=C/C=C/1C", "note": "[Sirolimus]", "values": [
      {"measurement": "solubility", "setting": "[1]; [6]", "value": "> 100", "unit": "mg/mL"},
      {"measurement": "solubility", "setting": "[1]; [7]", "value": "> 100", "unit": "mg/mL"},
      {"measurement": "solubility", "setting": "[1]; [8]", "value": "> 80", "unit": "mg/mL"},
      {"measurement": "solubility", "setting": "[1]; [9]", "value": "~30", "unit": "mg/mL"},
      {"measurement": "sirolimus converted to isomer C after time 0", "setting": "[4]; in NMP, DMSO and propylene carbonate within 24 hours", "value": "less than 1.5%"},
      {"measurement": "Isomer C level (%)", "setting": "[4]; sirolimus 20 mg/ml in 50% NMP + 50% DMSO, 0 h", "value": 1.07, "unit": "%"},
      {"measurement": "Isomer C level (%)", "setting": "[4]; sirolimus 20 mg/ml in 50% NMP + 50% DMSO, 1 h", "value": 1.15, "unit": "%"},
      {"measurement": "Isomer C level (%)", "setting": "[4]; sirolimus 20 mg/ml in 50% NMP + 50% DMSO, 4 h", "value": 1.46, "unit": "%"},
      {"measurement": "Isomer C level (%)", "setting": "[4]; sirolimus 20 mg/ml in 50% NMP + 50% DMSO, 24 h", "value": 1.46, "unit": "%"},
      {"measurement": "Isomer C level (%)", "setting": "[4]; sirolimus 20 mg/ml in DMSO, 0 h", "value": 1.51, "unit": "%"},
      {"measurement": "Isomer C level (%)", "setting": "[4]; sirolimus 20 mg/ml in DMSO, 1 h", "value": 1.23, "unit": "%"},
      {"measurement": "Isomer C level (%)", "setting": "[4]; sirolimus 20 mg/ml in DMSO, 4 h", "value": 1.72, "unit": "%"},
      {"measurement": "Isomer C level (%)", "setting": "[4]; sirolimus 20 mg/ml in DMSO, 24 h", "value": 2.50, "unit": "%"},
      {"measurement": "Isomer C level (%)", "setting": "[4]; sirolimus 20 mg/ml in NMP, 0 h", "value": 1.00, "unit": "%"},
      {"measurement": "Isomer C level (%)", "setting": "[4]; sirolimus 20 mg/ml in NMP, 1 h", "value": 1.02, "unit": "%"},
      {"measurement": "Isomer C level (%)", "setting": "[4]; sirolimus 20 mg/ml in NMP, 4 h", "value": 1.21, "unit": "%"},
      {"measurement": "Isomer C level (%)", "setting": "[4]; sirolimus 20 mg/ml in NMP, 24 h", "value": 1.46, "unit": "%"},
      {"measurement": "Isomer C level (%)", "setting": "[4]; sirolimus 20 mg/ml in Propylene Carbonate, 0 h", "value": 1.12, "unit": "%"},
      {"measurement": "Isomer C level (%)", "setting": "[4]; sirolimus 20 mg/ml in Propylene Carbonate, 1 h", "value": 1.12, "unit": "%"},
      {"measurement": "Isomer C level (%)", "setting": "[4]; sirolimus 20 mg/ml in Propylene Carbonate, 4 h", "value": 1.46, "unit": "%"},
      {"measurement": "Isomer C level (%)", "setting": "[4]; sirolimus 20 mg/ml in Propylene Carbonate, 24 h", "value": 2.77, "unit": "%"},
      {"measurement": "Isomer C level (%)", "setting": "[4]; sirolimus 20 mg/ml in Transcutol P, 0 h", "value": 4.93, "unit": "%"},
      {"measurement": "Isomer C level (%)", "setting": "[4]; sirolimus 20 mg/ml in Transcutol P, 1 h", "value": 7.11, "unit": "%"},
      {"measurement": "Isomer C level (%)", "setting": "[4]; sirolimus 20 mg/ml in Transcutol P, 4 h", "value": 8.14, "unit": "%"},
      {"measurement": "Isomer C level (%)", "setting": "[4]; sirolimus 20 mg/ml in Transcutol P, 24 h", "value": 8.18, "unit": "%"},
      {"measurement": "initial concentrations of Seco-Rapamycin", "setting": "[5]; in the tested samples, time 0", "value": "undetectable"},
      {"measurement": "percentage of Seco-Rapamycin in the overall amount of sirolimus", "setting": "[5]; sirolimus in 50% NMP + 50% DMSO, 4 h", "value": 0.09, "unit": "%"},
      {"measurement": "percentage of Seco-Rapamycin in the overall amount of sirolimus", "setting": "[5]; sirolimus in 50% NMP + 50% DMSO, 24 h", "value": 0.13, "unit": "%"},
      {"measurement": "percentage of Seco-Rapamycin in the overall amount of sirolimus", "setting": "[5]; sirolimus in DMSO, 4 h", "value": 0.23, "unit": "%"},
      {"measurement": "percentage of Seco-Rapamycin in the overall amount of sirolimus", "setting": "[5]; sirolimus in DMSO, 24 h", "value": 0.44, "unit": "%"},
      {"measurement": "percentage of Seco-Rapamycin in the overall amount of sirolimus", "setting": "[5]; sirolimus in NMP, 4 h", "value": 0.12, "unit": "%"},
      {"measurement": "percentage of Seco-Rapamycin in the overall amount of sirolimus", "setting": "[5]; sirolimus in NMP, 24 h", "value": 0.26, "unit": "%"},
      {"measurement": "percentage of Seco-Rapamycin in the overall amount of sirolimus", "setting": "[5]; sirolimus in Propylene Carbonate, 24 h", "value": 0.08, "unit": "%"},
      {"measurement": "percentage of Seco-Rapamycin in the overall amount of sirolimus", "setting": "[5]; sirolimus in Transcutol P, 0 h", "value": 0.20, "unit": "%"},
      {"measurement": "percentage of Seco-Rapamycin in the overall amount of sirolimus", "setting": "[5]; sirolimus in Transcutol P, 1 h", "value": 0.23, "unit": "%"},
      {"measurement": "percentage of Seco-Rapamycin in the overall amount of sirolimus", "setting": "[5]; sirolimus in Transcutol P, 4 h", "value": 0.76, "unit": "%"},
      {"measurement": "percentage of Seco-Rapamycin in the overall amount of sirolimus", "setting": "[5]; sirolimus in Transcutol P, 24 h", "value": 1.06, "unit": "%"},
      {"measurement": "water solubility", "setting": "[3]", "value": "poorly water-soluble"}
    ]}
  ]
}
